Assay results published in the NIST ThermoML archive (doi:10.1021/je0342668).

Assay: molar heat capacity at constant pressure; xn = mol fraction of the nth substance listed
Conditions: Liquid, x2 = 0.568

CCCO [propan-1-ol] + O
Conditions | molar heat capacity at constant pressure [J/K/mol]
262.42 K | 106.61
264.63 K | 107.35
266.82 K | 108.31
269.02 K | 109.17
271.19 K | 109.88
273.35 K | 110.58
275.5 K | 111.1
277.64 K | 111.89
279.76 K | 112.63
281.87 K | 113.37
283.94 K | 114.17
286 K | 114.78
288.06 K | 115.38
290.08 K | 116.09
292.07 K | 116.6
294.06 K | 117.18
296.02 K | 117.95
298.02 K | 118.53
300.05 K | 119.17
302.07 K | 119.94
304.12 K | 120.61
306.15 K | 121.22
308.18 K | 121.92
310.21 K | 122.56
312.24 K | 123
314.26 K | 123.59
316.27 K | 124.29
318.28 K | 124.81
